Experiments:
Assay type in all cases: cell-based, human
[1] = tested on: MAFA expression; experiment: Stage 7 treatment, real-time PCR of MAFA (Example 7); conditions: Stage 7, day 14, 2 μM R428 or 2-5 μM inhibitor substituted for R428, H1-derived cells, mRNA
Protocol: (§1) Cells of the human embryonic stem cell line H1 (WA01) were seeded as single cells at 1×10^5 cells/cm^2 on MATRIGEL™ (1:30 dilution) coated dishes in E8 media. At about 70 to 80% confluency, the cultures were washed in 1× incomplete DPBS followed by incubation with 1× TrypLE™ Express Enzyme for 3 to 5 minutes at 37° C. The released cells were rinsed with E8 and spun at 1000 rpm for 5 minutes. The resulting cell pellet was resuspended in E8 supplemented with 10 μM Y-27632 and the single cell suspension was seeded at approximately 1.3 to 1.5×10^5 cells/cm^2. The cultures were fed every day with E8 medium and differentiation, according to the following protocol, was initiated 48 hrs. following seeding resulting in an about 90% starting confluency.
Stage 6 cells were cultured for fourteen days in BLAR medium supplemented with a 1:100 dilution of ITS-X; 20 mM glucose (final); 1.5 g/L sodium bicarbonate; 2% FAF-BSA; 10 μg/ml of heparin, 10 μM ZnSO4, 1 μM T3 as 3,3′, 5-triiodo-L-thyronine sodium salt, 10 μM ALK5 inhibitor II, 1 mM N-acetyl cysteine. Some cultures also included one of 2 μM R428, 2-5 μM RSK inhibitor II (2-(3,5-Difluoro-4-hydroxy-anilino)-8-isopentyl-5,7-dimethyl-7H-pteridin-6-one) (EMD Millipore; Catalog No, 559286-5MG), 2-5 μM aurora kinase inhibitor II (EMD Millipore, or a combination of 2-5 μM RSK inhibitor II and 2-5 μM aurora kinase II inhibitor.
At Stage 7, day 14, mRNA was collected and compared to undifferentiated human stem cells.

[2] = tested on: UCN3 expression; experiment: Stage 7 treatment, real-time PCR of UCN3 (Example 6); conditions: Stage 7, day 7, 2 μM in Stage 7 medium, H1-derived cells, mRNA
Protocol: as §1, with “TrypLET™” for “TrypLE™”
(§2) Stage 6 cells were cultured for seven days in BLAR medium supplemented with a 1:100 dilution of ITS-X; 20 mM glucose (final); 1.5 g/L sodium bicarbonate; 2% FAF-BSA; 10 μg/ml of heparin, 10 μM ZnSO4, 1 μM T3 as 3,3′, 5-triiodo-L-thyronine sodium salt, 10 μM ALK5 inhibitor II, 1 mM N-acetyl cysteine. […]
(§3) At Stage 7, day 7, mRNA was collected and expression of MAFA, UCN3, PDX1, NKX6.1, insulin and G6PC2 evaluated as compared to undifferentiated human stem cells. […]

[3] = tested on: G6PC2 expression; experiment: Stage 7 treatment, real-time PCR of G6PC2 (Example 6); conditions: Stage 7, day 7, 2 μM in Stage 7 medium, H1-derived cells, mRNA
Protocol: as §1, with “TrypLET™” for “TrypLE™”
as §2, §3

With `Nc1nc(Nc2ccc3c(c2)CC[C@@H](N2CCCC2)CC3)nn1-c1cc2c(nn1)-c1ccccc1CCC2` [R428, 1H-1,2,4-Triazole-3,5-diamine, 1-(6,7-dihydro-5H-benzo[6,7]cyclohepta[1,2-c]pyridazin-3-yl) N3-[(7S)-6,7,8,9-tetrahydro-7-(1-pyrrolidinyl)-5H-benzocyclohepten-2-yl]-] the MAFA expression [1] was “removal of R428 resulted in a significant decrease in MAFA expression”, the UCN3 expression [2] was “reduces other beta cell maturation markers” and the G6PC2 expression [3] was “reduces other beta cell maturation markers”.

— patent US10870832B2, “Use of small molecules to enhance MAFA expression in pancreatic endocrine cells” (Janssen Biotech, Inc., priority 2014, dated 2020)
